Where no end group is shown, it is not given here.
How the values were obtained:
human skin cell HaCat = assay: boyden chamber assay of skin cell migration; format: cell-based; parameters: migration of skin cells relative to a control: dose or concentration left out as unconfirmed; settings: for skin cell migratory activity relative to the control: 1 μM peptide (most effective concentration), HaCat, control: medium without peptide; for migration of skin cells relative to a control: boyden chamber assay
Procedure: To examine whether each of the peptides synthesized in Example 1 could promote the migration of skin cells, a boyden chamber assay was used.
In the chamber of two compartments separated by a microporous membrane, 50 μL of a suspension containing the human skin cell HaCat at a concentration of 5×10^3 CFU/ml was placed in the upper compartment and were allowed to migrate through the pores of the membrane into the lower compartment in which a 0.25˜16 μM dilution of each of the peptides in a skin cell culture medium was present. The cells which migrated into the lower compartment were counted to determine the ability of each of the peptides to promote skin cell […] (FIG. 1). For a control, a skin cell culture medium containing none of the peptides was used.

HaCat = assay: scratched wound-healing assay of skin cell regeneration; format: cell-based, human; settings: 1 μM peptide, 12 hrs incubation
Procedure: To examine whether each of the peptides synthesized in Example 1 can enhance the regeneration of skin cells, a scratched wound-healing assay was used. 900 μL of a suspension containing HaCat at a concentration of 1×10^5 CFU/ml was placed in each well of 12-well plates and incubated for 3 days. […] A clear zone was set at the center of each well of the plate using a yellow tip. After incubation for 12 hrs, a reduced area of the clear zone was measured to determine the effect of each peptide on the regeneration of skin cells (FIG. 2). For a control, no peptides were used.

full-thickness wound = full-thickness wound healing on the back of mice; format: in vivo; settings: 50 μL of 1 μM peptide applied to wound once a day for two days
Procedure: Mice were shaved on the back using an electric razor, followed by forming a full-thickness wound 1.1 cm in diameter using surgical scissors. Application of 50 μL of 1 μM peptide 17 to the wound was continued for 2 days, after which the size of the wound was measured. The wound healing activity of peptide 17 was expressed by the reduced area of the wound (FIG. 3). As the control, the mice were treated with distilled water instead of peptide 17.

Sequence: APKAMRLLRRLLRLQKKGI (APKAMRLLRRLLRLQKKGI-NH2) [Peptide 26]
- skin cell migratory activity relative to the control (human skin cell HaCat): about 4.5 times that of the control
- migration of skin cells relative to a control (human skin cell HaCat): 4.5 times higher than a control
- rate of regeneration of skin cells (reduced area of clear zone) versus no peptide (HaCat): 2.5 fold

Sequence: APKAMKLLKKLLKLQKKGI (APKAMKLLKKLLKLQKKGI-NH2) [Peptide 17]
- rate of reduction of wound area versus distilled water control (full-thickness wound): 7 fold
- skin cell migratory activity relative to the control (human skin cell HaCat): about 4.5 times that of the control
- migration of skin cells relative to a control (human skin cell HaCat): 4.5 times higher than a control
- rate of regeneration of skin cells (reduced area of clear zone) versus no peptide (HaCat): 2.5 fold
